From patent US8598155B2, “Imidazo[5,1-f][1,2,4]triazines for the treatment of neurological disorders” (Pfizer Inc., priority 2011, dated 2013)

Biological target: human full-length PDE2A3 enzyme (Homo sapiens (Human), UniProt O00408)
Conditions: read-out: IC50 (assay validation control); PDE2A3 SPA validation; IC50 values obtained were within 3× of literature values
Procedure: Measurement of Recombinant Human PDE2A3 Inhibition by SPA Technology
In the present assay, the activity of the test substances on human full-length PDE2A3 enzyme was determined using the [^3H]-cGMP scintillation proximity assay (SPA) modified from the Amersham TRKQ7100 instructions (GE Healthcare, USA). PDE2A3 protein was obtained from FLAG purification of sf21 insect cells using standard affinity purification procedures for this tag (anti-FLAG M2, Sigma Aldrich). Briefly, the SPA assays were performed using PDE SPA yttrium silicate beads (Perkin Elmer RPNQ0024) which bind preferentially to the linear nucleotide, GMP, compared to the cyclic nucleotide, cGMP. The, ^3H-GMP product was detected using a Wallac MicroBeta scintillation counter. The reaction time was chosen with respect to the amount of time in which 10-20% of substrate was hydrolyzed by the enzyme.
The corresponding IC50 values of the compounds for the inhibition of PDE activities are determined from the concentration-effect curves by means of non-linear regression.

Chain of human full-length PDE2A3 enzyme (O00408 whole entry): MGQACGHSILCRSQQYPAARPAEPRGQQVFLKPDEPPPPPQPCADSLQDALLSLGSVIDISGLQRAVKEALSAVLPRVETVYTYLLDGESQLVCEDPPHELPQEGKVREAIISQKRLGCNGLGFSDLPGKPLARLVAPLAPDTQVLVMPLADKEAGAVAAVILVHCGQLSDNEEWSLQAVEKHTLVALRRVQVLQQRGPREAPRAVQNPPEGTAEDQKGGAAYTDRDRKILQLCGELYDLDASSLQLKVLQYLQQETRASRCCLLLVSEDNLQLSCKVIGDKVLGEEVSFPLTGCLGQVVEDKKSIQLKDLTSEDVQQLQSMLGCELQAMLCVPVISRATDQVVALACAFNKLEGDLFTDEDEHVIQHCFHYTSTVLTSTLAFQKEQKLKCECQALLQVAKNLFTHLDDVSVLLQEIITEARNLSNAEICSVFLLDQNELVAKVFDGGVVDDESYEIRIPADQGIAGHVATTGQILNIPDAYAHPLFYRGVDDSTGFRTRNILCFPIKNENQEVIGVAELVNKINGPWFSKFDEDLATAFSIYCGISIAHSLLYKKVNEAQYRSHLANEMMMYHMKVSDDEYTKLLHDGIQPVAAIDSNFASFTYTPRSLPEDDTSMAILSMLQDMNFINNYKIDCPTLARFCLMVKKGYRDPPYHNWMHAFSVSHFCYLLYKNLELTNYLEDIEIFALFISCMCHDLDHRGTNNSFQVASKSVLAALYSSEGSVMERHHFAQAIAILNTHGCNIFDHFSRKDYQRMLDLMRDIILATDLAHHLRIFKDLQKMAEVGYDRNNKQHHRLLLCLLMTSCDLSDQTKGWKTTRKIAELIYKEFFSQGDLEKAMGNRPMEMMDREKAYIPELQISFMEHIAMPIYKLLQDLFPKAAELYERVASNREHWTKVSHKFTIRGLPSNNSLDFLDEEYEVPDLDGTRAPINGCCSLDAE

IC50: 1700 nM
Compound: CCCCCC[C@@H]([C@@H](C)O)n1cnc2c(N)ncnc21 (racemic) [EHNA]
